Test results reported in patent US10479764B2, “2-methylene-(22E)-25-hexanoyl-24-oxo-26,27-cyclo-22-dehydro-19-nor-vitamin D analogs” (WISCONSIN ALUMNI RESEARCH FOUNDATION, priority 2011, dated 2019).
Where two headings read alike, the source gives them in different places.

Experiments:
[1] = Bone calcium mobilization (serum calcium) in vitamin D-deficient rats; format: in vivo, rat
Procedure: (§1) Intestinal Calcium Transport and Bone Calcium Mobilization
(§2) Male, weanling Sprague-Dawley rats were placed on Diet 11 (0.47% Ca) diet+AEK oil for one week followed by Diet 11 (0.02% Ca)+AEK oil for 3 weeks. The rats were then switched to a diet containing 0.47% Ca for one week followed by two weeks on a diet containing 0.02% Ca. Dose administration began during the last week on 0.02% calcium diet. Four consecutive ip doses were given approximately 24 hours apart. Twenty-four hours after the last dose, blood was collected from the severed neck and the concentration of serum calcium determined as a measure of bone calcium mobilization. The first 10 cm of the intestine was also collected for intestinal calcium transport analysis using the everted gut sac method.

[2] = system: HL-60 cells; experiment: HL-60 differentiation (nitro blue tetrazolium reduction); format: cell-based, human; conditions: differentiation of HL-60 cells into monocytes, FIG. 2, read-out: EC50, HL-60 cell differentiation
Procedure: The study drugs were dissolved in ethanol and the concentrations determined using UV spectrophotometry. Serial dilutions were prepared so that a range of drug concentrations could be tested without changing the final concentration of ethanol (≤0.2%) present in the cell cultures.
Human promyelocytic leukemia (HL60) cells were grown in RPMI-1640 medium containing 10% fetal bovine serum. The cells were incubated at 37° C. in the presence of 5% CO2.
HL60 cells were plated at 1.2×10^5 cells/ml. Eighteen hours after plating, cells in duplicate were treated with drug. Four days later, the cells were harvested and a nitro blue tetrazolium reduction assay was performed (Collins et al., 1979; J. Exp. Med. 149:969-974). The percentage of differentiated cells was determined by counting a total of 200 cells and recording the number that contained intracellular black-blue formazan deposits. Verification of differentiation to monocytic cells was determined by measuring phagocytic activity (data not shown).

[3] = system: 24-hydroxylase (24Ohase) gene promoter in ROS 17/2.8 (bone) cells; experiment: In vitro transcription assay (24-hydroxylase promoter luciferase reporter); format: cell-based; conditions: ROS 17/2.8 cells, FIG. 3, read-out: EC50, transcriptional activity in bone cells (24-hydroxylase gene)
Procedure: In Vitro Transcription Assay
Transcription activity was measured in ROS 17/2.8 (bone) cells that were stably transfected with a 24-hydroxylase (24Ohase) gene promoter upstream of a luciferase reporter gene (Arbour et al., 1998). Cells were given a range of doses. Sixteen hours after dosing the cells were harvested and luciferase activities were measured using a luminometer.
RLU=relative luciferase units.

[4] = molecular target: T1, full-length recombinant rat vitamin D receptor (Rattus norvegicus, UniProt P13053); experiment: Vitamin D receptor binding, competition with [3H]-1,25(OH)2D3; conditions: full-length recombinant rat VDR; FIG. 1
T1 construct: Full-length recombinant rat receptor was expressed in E. coli; histidine tag (C); made in house; host or cells: E. coli BL21 (DE3) Codon Plus RIL
T1 sequence (P13053 1-423): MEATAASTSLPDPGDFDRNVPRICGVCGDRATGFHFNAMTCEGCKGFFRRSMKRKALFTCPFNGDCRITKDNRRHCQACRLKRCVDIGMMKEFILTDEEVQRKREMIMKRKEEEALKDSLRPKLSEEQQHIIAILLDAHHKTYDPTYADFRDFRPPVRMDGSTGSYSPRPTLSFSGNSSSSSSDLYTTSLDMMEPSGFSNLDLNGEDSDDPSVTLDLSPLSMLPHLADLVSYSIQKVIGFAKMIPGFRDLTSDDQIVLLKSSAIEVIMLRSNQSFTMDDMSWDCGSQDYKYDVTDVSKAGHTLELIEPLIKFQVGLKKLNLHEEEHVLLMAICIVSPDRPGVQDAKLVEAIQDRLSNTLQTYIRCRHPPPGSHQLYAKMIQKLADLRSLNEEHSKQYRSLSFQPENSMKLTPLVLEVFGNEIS
Text: Vitamin D Receptor Binding
Full-length recombinant rat receptor was expressed in E. coli BL21 (DE3) Codon Plus RIL cells and purified to homogeneity using two different column chromatography systems. The first system was a nickel affinity resin that utilizes the C-terminal histidine tag on this protein. The protein that was eluted from this resin was further purified using ion exchange chromatography (S-Sepharose Fast Flow). Aliquots of the purified protein were quick frozen in liquid nitrogen and stored at −80° C. until use. For use in binding assays, the protein was diluted in TEDK50 (50 mM Tris, 1.5 mM EDTA, pH7.4, 5 mM DTT, 150 mM KCl) with 0.1% Chaps detergent. The receptor protein and ligand concentration were optimized such that no more than 20% of the added radiolabeled ligand was bound to the receptor.
The following day, 100 mcl of hydroxylapatite slurry (50%) was added to each tube and mixed at 10-minute intervals for 30 minutes. The hydroxylapaptite was collected by centrifugation and then washed three times with Tris-EDTA buffer (50 mM Tris, 1.5 mM EDTA, pH 7.4) containing 0.5% Titron X-100. After the final wash, the pellets were transferred to scintillation vials containing 4 ml of Biosafe II scintillation cocktail, mixed and placed in a scintillation counter. Total binding was determined from the tubes containing only radiolabeled ligand.

[5] = Intestinal calcium transport (everted gut sac) in vitamin D-deficient rats; format: in vivo, rat
Procedure: as §1, §2

| EC50 ([2]; Homo sapiens) | Ki [4] | Compound | serum calcium levels (bone calcium mobilization) ([1]; vitamin D-deficient rats, low calcium diet (0.02%), all dosages, FIGS. 4A and 4B) | EC50 [2] | EC50 [3] | bone calcium mobilization at 780 pmol/day ([1]; 780 pmol/day, FIG. 4B, second group of animals) | dose giving about the same mobilization of bone calcium as 1,25(OH)2D3 at 260 pmol/day ([1]; 4 consecutive days, ip, FIG. 4A, first group of animals) | dose giving about the same mobilization of bone calcium as native hormone at 780 pmol/day ([1]; 4 consecutive days, ip, FIG. 4B, second group of animals) | bone calcium mobilization activity, times less than 1,25(OH)2D3 ([1]; FIGS. 4A and 4B) | intestinal calcium transport activity at 87 pmol/day ([5]; 87 pmol/day for 4 consecutive days, FIG. 5A) | intestinal calcium transport activity at 260 pmol/day and then 780 pmol/day ([5]; 260 pmol/day and 780 pmol/day, 4 consecutive days, FIG. 5A) | intestinal calcium transport activity compared with 1,25(OH)2D3 ([5]; in vivo, dose dependent, FIGS. 5A and 5B) |
| --- | --- | --- | --- | --- | --- | --- | --- | --- | --- | --- | --- | --- |
|  |  | C=C1/C(=C\C=C2/CCC[C@]3(C)[C@@H]([C@H](C)CCCC(C)(C)O)CC[C@@H]23)C[C@@H](O)C[C@@H]1O [1α,25-dihydroxyvitamin D3, reference compound] | increased serum calcium levels at all dosages | 2 nM | 0.3 nM |  |  |  |  |  |  |  |
| 4 nM | 0.3 nM | C=C1[C@H](O)CC(=C/C=C2\CCC[C@]3(C)[C@@H]([C@H](C)/C=C/C(=O)C4(C(=O)CCCCC)CC4)CC[C@@H]23)C[C@H]1O [UW-05, 2-methylene-(22E)-25-hexanoyl-24-oxo-26,27-cyclo-22-dehydro-19-nor-1α-hydroxyvitamin D3] |  |  | 0.3 nM | no substantial effect was seen | 780 pmol/day | 7020 pmol/day | about 10 times | did not result in substantial activity | a significant increase in effect was seen | approximately equal to 1,25-dihydroxyvitamin D3 |
